Laboratory results as given in ChEMBL document CHEMBL1201862, “PubChem BioAssay data set” (2004).
Calls of active or inactive are those of the source.

Assays:
[1] = intracellular Trypanosoma cruzi inhibitors in host cells – cell-based, plate reader, cherry-pick samples, set 3, dose response (AID 651818); assay type: functional;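 also: compounds incubated with infected cells for about four days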
[2] = molecular target: T1, Leucine aminopeptidase (Plasmodium falciparum 3D7, UniProt Q8IL11); assay: P. falciparum M17LAP inhibitors, primary screen, biochemical, fluorogenic H-Leu-NHMec substrate, 1536-well (AID 1619); assay type: functional
T1 sequence (Q8IL11 whole entry): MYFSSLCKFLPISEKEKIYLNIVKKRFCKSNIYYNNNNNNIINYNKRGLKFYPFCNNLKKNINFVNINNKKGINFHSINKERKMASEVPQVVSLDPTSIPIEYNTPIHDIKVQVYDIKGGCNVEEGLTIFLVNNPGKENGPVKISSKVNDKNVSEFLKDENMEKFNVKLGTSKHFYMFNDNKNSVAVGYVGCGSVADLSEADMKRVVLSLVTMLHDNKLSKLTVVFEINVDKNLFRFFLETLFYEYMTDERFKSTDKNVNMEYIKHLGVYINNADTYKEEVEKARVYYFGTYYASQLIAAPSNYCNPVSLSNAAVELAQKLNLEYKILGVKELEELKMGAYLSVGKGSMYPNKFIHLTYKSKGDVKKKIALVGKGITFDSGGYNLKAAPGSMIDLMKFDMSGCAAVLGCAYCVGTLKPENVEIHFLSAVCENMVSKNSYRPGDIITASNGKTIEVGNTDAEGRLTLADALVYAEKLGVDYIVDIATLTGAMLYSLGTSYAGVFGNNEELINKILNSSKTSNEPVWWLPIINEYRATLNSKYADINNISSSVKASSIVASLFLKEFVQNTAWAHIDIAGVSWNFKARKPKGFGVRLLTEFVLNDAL

[3] = viability of HCT116 lacking mutant beta-catenin – cell-based, human colon tumor, dose response (AID 1045); assay type: functional;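 also: HCT116 colon tumor cells with beta catenin knocked out; cells exposed to compound for 60 hours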
[4] = viability of PTEN-deleted HCT116 cells – cell-based, HCT116 PTEN knockout, dose response (AID 1047); assay type: functional;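 also: HCT116 colon tumor cells with PTEN knocked out; cells exposed to compound for 60 hours before readout; potency for loss of cell viability measured by luminescence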
[5] = molecular target: FAD-linked sulfhydryl oxidase ALR (Homo sapiens, UniProt P55789); assay: ALR-catalysed DTT oxidation blockers – biochemical, H2O2 detection, luminescence, cherry-pick, dose response (AID 493248)
Chain of FAD-linked sulfhydryl oxidase ALR (P55789 whole entry): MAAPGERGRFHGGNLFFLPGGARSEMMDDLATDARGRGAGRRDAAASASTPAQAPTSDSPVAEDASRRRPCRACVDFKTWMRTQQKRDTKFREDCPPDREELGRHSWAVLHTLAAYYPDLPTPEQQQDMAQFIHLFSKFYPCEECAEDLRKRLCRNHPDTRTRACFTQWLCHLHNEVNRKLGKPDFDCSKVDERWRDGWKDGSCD

[6] = non-specific 3'UTR reporter inhibition in Clone20-Shn3RL – cell-based, Renilla luciferase, cherry-picked, counter-screen for Shn3 inhibitor project, dose response (AID 624133); assay type: functional
[7] = NIH3T3 cell viability loss – ATP luminescence, mouse fibroblasts, counter-screen, dose response (AID 2010); assay type: functional, cell-based;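 also: cells exposed to compound for about 90 hours before reading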
[8] = reduction of Shn3 3'UTR-driven luciferase in osteoblasts – cell-based, Clone20 osteoblasts, firefly luciferase, cherry-picked, dose response (AID 624132); assay type: functional;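 also: firefly luciferase luminescence from reporter carrying the Shn3 3'UTR in osteoblasts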
[9] = test system: INS1; assay: INS-1E survival protection against cytokine death – cell-based, luminescence, retest, dose response (AID 449756); assay type: functional; conditions: Rattus norvegicus;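 also: cell death triggered by IL-1 beta plus TNF-alpha plus IFN-gamma mixture; protective hits raise ATP signal compared with cytokine alone wells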
[10] = loss of viability in HepG2 cells – cell-based, CellTiter-Glo, cherry-picked, cytotoxicity control for Shn3 inhibitor project, dose response (AID 624134); assay type: functional
[11] = Trypanosoma cruzi growth suppression in host cells – NIH3T3 host cells, beta-gal luminescence, confirmation (AID 2044); assay type: functional, cell-based;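 also: intracellular parasites grown in NIH/3T3 mouse fibroblasts as host cells; luminescent beta-galactosidase reporter signal from transgenic T. cruzi replicating inside host cells; inhibitors lower the luminescence signal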
[12] = molecular target: Nonstructural protein 1 (Influenza A virus, UniProt Q194T2); assay type: functional, Influenza A virus (A/California/07/2009(H1N1))
Chain of Nonstructural protein 1 (Q194T2 whole entry): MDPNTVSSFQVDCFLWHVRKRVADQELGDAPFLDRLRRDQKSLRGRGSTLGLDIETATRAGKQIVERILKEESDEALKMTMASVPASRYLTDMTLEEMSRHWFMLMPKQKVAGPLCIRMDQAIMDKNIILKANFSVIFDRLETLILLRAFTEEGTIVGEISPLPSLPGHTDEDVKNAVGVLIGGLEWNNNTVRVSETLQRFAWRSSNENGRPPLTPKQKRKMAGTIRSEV

[13] = viability loss in THP-1 monocytes – THP-1 cells, cytotoxicity control for Vif-APOBEC3G degradation inhibitor project, dose response (AID 1117359); assay type: functional; conditions: THP-1
[14] = test system: BJ; assay: cells; assay type: functional, cell-based; conditions: Homo sapiens
[15] = test system: BJ; assay: BJ-TERT-LT-ST fibroblast viability loss – cell-based, RAS-independent, luminescence, dose response (AID 1935); assay type: functional; conditions: Homo sapiens;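 also: BJ fibroblasts immortalized with TERT plus LT and ST oncogenes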
[16] = A549 cell cytotoxicity, dose response, cytotoxicity control, plate reader, cherry-pick, antagonist series (AID 743412); assay type: functional, cell-based
[17] = DRD fibroblast viability loss – cell-based, non-viral oncogenic, luminescence, dose response (AID 1934); assay type: functional; conditions: Homo sapiens
[18] = viability loss in HEK293 cells – cell-based, plate reader, cherry-picked samples, cytotoxicity control, dose response (AID 743446); assay type: functional
[19] = test system: BJ; assay: BJ-TERT fibroblast viability loss – cell-based, RAS-independent, luminescence, dose response (AID 1933); assay type: functional; conditions: Homo sapiens
[20] = toxicity toward HepG2 liver cells – cell-based, plate reader, cherry-pick, antagonist series, cytotoxicity control, dose response (AID 743416); assay type: functional
[21] = test system: Streptococcus sp. 'group A'; assay: Streptococcus pyogenes SK(-)GAS viability under kanamycin – luminescence, BacTiterGlo, confirmation, counter-screen for streptokinase expression inhibitor project, dose response (AID 1900); assay type: functional, organism-based
[22] = molecular target: T2, Streptokinase A (Streptococcus pyogenes serotype M1, UniProt P10520); assay: viability-normalized secreted streptokinase activity reduction – plasminogen activation absorbance, OD405, dose response (AID 1914); assay type: functional, Streptococcus pyogenes M1 GAS;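 also: secreted streptokinase activity via plasminogen activation per viability signal from cell pellet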
T2 sequence (P10520 whole entry): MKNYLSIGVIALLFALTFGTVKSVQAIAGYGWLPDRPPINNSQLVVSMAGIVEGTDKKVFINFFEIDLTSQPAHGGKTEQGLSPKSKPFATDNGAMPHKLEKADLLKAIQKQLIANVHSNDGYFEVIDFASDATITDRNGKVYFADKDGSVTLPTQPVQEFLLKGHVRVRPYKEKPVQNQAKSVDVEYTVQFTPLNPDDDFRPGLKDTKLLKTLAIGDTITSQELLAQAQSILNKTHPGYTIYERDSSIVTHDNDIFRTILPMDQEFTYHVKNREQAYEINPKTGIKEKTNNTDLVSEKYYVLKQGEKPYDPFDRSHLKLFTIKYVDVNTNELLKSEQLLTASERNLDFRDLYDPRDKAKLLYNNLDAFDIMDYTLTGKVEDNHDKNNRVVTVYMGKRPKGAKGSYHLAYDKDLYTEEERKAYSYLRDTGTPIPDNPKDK

[23] = test system: Streptococcus; assay: GAS UMAA2166 growth inhibition – luminescence, BacTiterGlo, counter-screen for streptokinase expression inhibitor project, dose response (AID 1915); assay type: functional, organism-based;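 also: potency for reduction of bacterial viability or growth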
[24] = molecular target: T3, Replicative DNA helicase DnaB (Mycobacterium tuberculosis, UniProt P9WMR3); assay: DnaB intein splicing inhibitors, dose response, biochemical, cell-free fluorescence (AID 449749); assay type: functional
T3 sequence (P9WMR3 whole entry): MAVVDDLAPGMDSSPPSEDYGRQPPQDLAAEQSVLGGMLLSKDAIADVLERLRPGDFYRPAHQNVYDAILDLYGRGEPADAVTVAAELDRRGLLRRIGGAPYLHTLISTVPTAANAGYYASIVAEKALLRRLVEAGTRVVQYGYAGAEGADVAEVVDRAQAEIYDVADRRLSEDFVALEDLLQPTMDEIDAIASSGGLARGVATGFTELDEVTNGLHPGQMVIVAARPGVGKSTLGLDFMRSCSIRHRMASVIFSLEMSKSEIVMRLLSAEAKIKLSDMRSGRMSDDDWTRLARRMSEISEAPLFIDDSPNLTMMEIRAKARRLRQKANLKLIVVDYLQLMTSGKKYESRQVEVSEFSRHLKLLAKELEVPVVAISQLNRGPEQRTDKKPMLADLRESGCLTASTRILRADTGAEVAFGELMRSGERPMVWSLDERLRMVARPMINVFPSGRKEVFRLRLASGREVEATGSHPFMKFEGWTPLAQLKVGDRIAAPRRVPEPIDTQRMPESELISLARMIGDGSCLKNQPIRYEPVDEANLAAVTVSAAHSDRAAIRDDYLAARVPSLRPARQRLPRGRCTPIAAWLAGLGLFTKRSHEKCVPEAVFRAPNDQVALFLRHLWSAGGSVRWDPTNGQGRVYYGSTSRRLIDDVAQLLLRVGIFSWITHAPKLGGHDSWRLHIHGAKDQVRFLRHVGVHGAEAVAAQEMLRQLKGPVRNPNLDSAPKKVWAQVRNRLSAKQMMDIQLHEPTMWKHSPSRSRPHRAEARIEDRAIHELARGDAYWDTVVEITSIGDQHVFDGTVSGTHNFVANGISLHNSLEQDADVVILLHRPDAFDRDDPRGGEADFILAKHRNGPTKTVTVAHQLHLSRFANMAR

[25] = molecular target: T4, Protein RecA (Mycobacterium tuberculosis, UniProt P9WHJ3); assay: Fluorescence Cell-Free Homogeneous Dose Retest to Identify Inhibitors of RecA-Intein Splicing Activity. [Related pubchem assays (depositor defined):AID2097, AID2223, AID489010, AID492950]; assay type: functional
T4 sequence (P9WHJ3 whole entry): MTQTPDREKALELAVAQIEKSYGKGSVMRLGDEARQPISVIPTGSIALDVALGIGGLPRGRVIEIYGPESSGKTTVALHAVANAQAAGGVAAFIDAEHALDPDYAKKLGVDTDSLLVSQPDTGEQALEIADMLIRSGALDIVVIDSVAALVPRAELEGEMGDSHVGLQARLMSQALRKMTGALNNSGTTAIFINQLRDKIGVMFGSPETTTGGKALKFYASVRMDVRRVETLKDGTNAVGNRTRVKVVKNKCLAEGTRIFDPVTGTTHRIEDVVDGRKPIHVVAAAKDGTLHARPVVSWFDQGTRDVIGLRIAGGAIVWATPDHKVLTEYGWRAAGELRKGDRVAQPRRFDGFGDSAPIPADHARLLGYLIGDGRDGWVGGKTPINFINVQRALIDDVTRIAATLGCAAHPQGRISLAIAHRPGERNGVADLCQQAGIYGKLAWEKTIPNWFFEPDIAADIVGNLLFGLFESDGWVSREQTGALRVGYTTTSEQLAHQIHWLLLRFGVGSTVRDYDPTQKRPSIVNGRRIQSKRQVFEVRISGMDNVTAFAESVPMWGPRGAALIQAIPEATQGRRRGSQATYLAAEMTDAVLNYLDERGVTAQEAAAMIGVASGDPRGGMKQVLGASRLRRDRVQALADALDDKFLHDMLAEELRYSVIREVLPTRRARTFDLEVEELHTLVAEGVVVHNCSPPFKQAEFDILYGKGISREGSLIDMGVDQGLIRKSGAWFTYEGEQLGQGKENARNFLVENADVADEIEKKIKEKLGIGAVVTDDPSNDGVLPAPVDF

SMILES: C[C@@H]1CCCCO[C@H](CN(C)Cc2ccccc2)[C@@H](C)CN([C@H](C)CO)C(=O)c2cc(NC(=O)Nc3ccc(C(F)(F)F)cc3)ccc2O1
- AC50 [1]: 5.97 µM (active)

SMILES: Cc1cccc(N2CCN(C(=O)c3ccccc3NC(=O)C3CC=CCC3C(=O)O)CC2)c1 (stereo not given)
- IC50 [2]: 19.1 µM (active)

SMILES: CC(=O)c1cccc(NC(S)=NCCC2=CCCCC2)c1
- EC50 [3]: 22.6 µM (active)
- EC50 [4]: 34 µM (active)

SMILES: CCN(CC)c1ccc(CNc2nc3ccccc3n2CCN2CCCCC2)cc1
- AC50 [5]: 0.68 µM (active)
- AC50 [6]: 1.51 µM (active)
- EC50 [7]: 7.56 µM (active)
- AC50 [8]: 2.64 µM (active)
- AC50 [9]: 7.16 µM (active)
- AC50 [10]: 10.2 µM (active)
- EC50 [11]: 3.28 µM (active)
- IC50 [12]: 27 µM (active)

SMILES: COc1ccc2cnn(CCOc3cc(C)ccc3C(C)C)c(=O)c2c1OC
- CC50 [13]: > 40 µM (active)

SMILES: O=C(NC(Cc1ccccc1)c1nc2ccccc2[nH]1)c1cccc([N+](=O)[O-])c1 (stereo not given)
- CC50 [13]: > 40 µM (active)

SMILES: CC(C)N(C(=O)COC(=O)c1ccccc1C(=O)c1ccc(Cl)c([N+](=O)[O-])c1)C(C)C
- EC50 [14]: > 150 µM (not active)
- EC50 [15]: > 75 µM (inconclusive)
- AC50 [16]: 34.2 µM (active)
- EC50 [17]: > 150 µM (not active)
- AC50 [18]: > 52 µM (inactive)
- EC50 [19]: 15.1 µM (active)
- AC50 [20]: > 52 µM (inactive)

SMILES: CCOc1cccc2sc(Nc3nc4ccc(NC(C)=O)cc4s3)nc12
- AC50 [16]: 9.66 µM (active)
- EC50 [7]: > 60 µM (not active)
- AC50 [18]: 24.5 µM (active)
- EC50 [21]: 23.3 µM (active)
- EC50 [11]: 2.44 µM (active)
- EC50 [22]: > 150 µM (not active)
- EC50 [23]: > 150 µM (not active)
- AC50 [20]: 5.46 µM (active)

SMILES: C[C@@H]1CCCCO[C@H](CN(C)C(=O)Nc2cccc3ccccc23)[C@@H](C)CN([C@H](C)CO)C(=O)c2cc(NS(=O)(=O)c3ccc(Cl)cc3)ccc2O1
- AC50 [1]: 3.37 µM (active)

SMILES: C[C@H]1CN([C@@H](C)CO)C(=O)c2cccc(NC(=O)c3cnccn3)c2O[C@H]1CN(C)Cc1ccc(C(=O)Nc2ccccc2N)cc1
- AC50 [1]: 0.803 µM (active)

SMILES: CC1=NNC(=O)C1CCC(=O)N/N=C/C=C/c1ccccc1 (stereo not given)
- IC50 [2]: 51.4 µM (active)

SMILES: Clc1ccc(OCCCNCc2ccccc2)c(Br)c1
- EC50 [3]: 17.4 µM (active)
- EC50 [4]: 23.1 µM (active)

SMILES: CSCCC(NS(=O)(=O)c1ccc2nc(O)c(O)nc2c1)C(=O)O (stereo not given)
- IC50 [2]: 6.94 µM (active)

SMILES: COc1ccc(S(=O)(=O)Nc2ccc3c(c2)CC(=O)N([C@H](C)CO)C[C@@H](C)[C@@H](CN(C)Cc2ccc(-c4ccccc4)cc2)O3)cc1
- AC50 [1]: 2.35 µM (active)

SMILES: C[C@@H]1CN([C@@H](C)CO)C(=O)c2cccc(NS(=O)(=O)c3ccccc3)c2O[C@@H]1CN(C)Cc1ccc(-c2ccccc2)cc1
- AC50 [1]: 3.3 µM (active)

SMILES: Cc1cc(/C=C(\C#N)C(=O)NCc2ccco2)c(C)n1-c1ccc(C(=O)O)cc1
- IC50 [2]: 41.1 µM (active)

SMILES: C[C@@H]1CN([C@H](C)CO)C(=O)c2cc(NS(=O)(=O)c3ccc(Cl)cc3)ccc2O[C@H]1CN(C)Cc1ccc(Cl)c(Cl)c1
- AC50 [1]: 1.81 µM (active)

SMILES: Cn1c(=O)n(CCc2ccccc2)c(=O)c2c1ncn2Cc1ccccc1
- EC50 [3]: 97.4 µM (active)
- EC50 [4]: 47.7 µM (active)

SMILES: O=C(Nc1ccc(F)cc1F)NC1CCN(S(=O)(=O)c2ccc(F)cc2)CC1
- CC50 [13]: > 40 µM (active)

SMILES: COc1ccccc1C(NC(C)=O)c1c(O)ccc2ccc(O)cc12 (stereo not given)
- AC50 [5]: 2.44 µM (active)
- AC50 [24]: > 380 µM (inactive)
- EC50 [25]: 2.89 µM (active)
